From publication PMC9024363, “Study on the Biochemical Characterization and Selectivity of Three β-Glucosidases From Bifidobacterium adolescentis ATCC15703” (Frontiers in Microbiology, 2022)
One block for each compound: values may come before it.

Experiments:
Type in all cases: biochemical
[1] = molecular target: T1, BaBgl3B (Bifidobacterium adolescentis, UniProt A1A2P5); test: pNPβGlc hydrolysis, absorbance […] nm
T1 construct: gene bglX; GH3; N-terminus from primer MSSCGC
T1 sequence (A1A2P5 1-809): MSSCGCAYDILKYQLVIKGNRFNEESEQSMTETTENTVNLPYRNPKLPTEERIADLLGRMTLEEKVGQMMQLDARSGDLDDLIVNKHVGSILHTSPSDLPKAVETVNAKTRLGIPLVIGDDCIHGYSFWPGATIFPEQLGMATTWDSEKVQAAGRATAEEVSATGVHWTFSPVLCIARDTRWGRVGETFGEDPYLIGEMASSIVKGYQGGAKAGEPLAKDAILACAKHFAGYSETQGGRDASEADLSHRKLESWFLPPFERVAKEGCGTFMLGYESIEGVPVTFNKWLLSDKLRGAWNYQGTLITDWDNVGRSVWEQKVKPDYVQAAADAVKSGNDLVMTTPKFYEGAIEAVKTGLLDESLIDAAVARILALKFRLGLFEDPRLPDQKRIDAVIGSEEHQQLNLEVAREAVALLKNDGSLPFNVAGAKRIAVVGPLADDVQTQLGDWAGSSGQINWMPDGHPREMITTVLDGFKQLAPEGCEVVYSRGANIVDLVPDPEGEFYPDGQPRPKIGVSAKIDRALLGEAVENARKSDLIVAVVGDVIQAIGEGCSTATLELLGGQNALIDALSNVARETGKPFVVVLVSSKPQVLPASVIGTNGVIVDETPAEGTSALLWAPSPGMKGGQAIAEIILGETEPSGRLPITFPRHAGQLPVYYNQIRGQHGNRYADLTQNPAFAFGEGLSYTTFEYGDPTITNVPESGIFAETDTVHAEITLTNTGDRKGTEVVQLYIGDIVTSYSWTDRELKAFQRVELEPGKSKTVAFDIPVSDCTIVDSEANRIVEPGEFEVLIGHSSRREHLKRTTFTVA

[2] = molecular target: T2, BaBgl1A (Bifidobacterium adolescentis, UniProt A1A2Y5); test: pNPβGlc hydrolysis, absorbance […] nm
T2 construct: gene BAD_1287; GH1; N-terminus from primer MKEQYE
T2 sequence (A1A2Y5 1-391): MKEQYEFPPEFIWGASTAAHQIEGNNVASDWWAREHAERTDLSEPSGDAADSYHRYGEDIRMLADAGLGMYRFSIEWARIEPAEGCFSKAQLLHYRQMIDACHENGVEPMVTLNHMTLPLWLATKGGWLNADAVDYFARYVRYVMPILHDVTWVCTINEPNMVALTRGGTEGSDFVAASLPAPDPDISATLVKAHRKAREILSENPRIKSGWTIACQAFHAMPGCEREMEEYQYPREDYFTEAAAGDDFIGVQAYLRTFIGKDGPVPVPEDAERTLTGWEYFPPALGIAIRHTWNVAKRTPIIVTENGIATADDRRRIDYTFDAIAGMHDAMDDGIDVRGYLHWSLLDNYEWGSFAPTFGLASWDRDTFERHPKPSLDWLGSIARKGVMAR

[3] = molecular target: T2, BaBgl1A; test: pNPβGlc hydrolysis, absorbance […] nm; details: competitive; pNPβGlc substrate; optimum pH 6.0, 30 °C
[4] = molecular target: T1, BaBgl3B; test: pNPβGlc hydrolysis, absorbance […] nm; details: competitive; pNPβGlc substrate; optimum pH 6.5, 50 °C
[5] = molecular target: T3, BaBgl3A (Bifidobacterium adolescentis, UniProt A1A2P2); test: TLC and HPLC of products; details: optimum pH, 37 °C, 2 h; 5 mg/ml substrate
T3 construct: gene BAD_1194; GH3; N-terminus from primer MSENTY
T3 sequence (A1A2P2 1-751): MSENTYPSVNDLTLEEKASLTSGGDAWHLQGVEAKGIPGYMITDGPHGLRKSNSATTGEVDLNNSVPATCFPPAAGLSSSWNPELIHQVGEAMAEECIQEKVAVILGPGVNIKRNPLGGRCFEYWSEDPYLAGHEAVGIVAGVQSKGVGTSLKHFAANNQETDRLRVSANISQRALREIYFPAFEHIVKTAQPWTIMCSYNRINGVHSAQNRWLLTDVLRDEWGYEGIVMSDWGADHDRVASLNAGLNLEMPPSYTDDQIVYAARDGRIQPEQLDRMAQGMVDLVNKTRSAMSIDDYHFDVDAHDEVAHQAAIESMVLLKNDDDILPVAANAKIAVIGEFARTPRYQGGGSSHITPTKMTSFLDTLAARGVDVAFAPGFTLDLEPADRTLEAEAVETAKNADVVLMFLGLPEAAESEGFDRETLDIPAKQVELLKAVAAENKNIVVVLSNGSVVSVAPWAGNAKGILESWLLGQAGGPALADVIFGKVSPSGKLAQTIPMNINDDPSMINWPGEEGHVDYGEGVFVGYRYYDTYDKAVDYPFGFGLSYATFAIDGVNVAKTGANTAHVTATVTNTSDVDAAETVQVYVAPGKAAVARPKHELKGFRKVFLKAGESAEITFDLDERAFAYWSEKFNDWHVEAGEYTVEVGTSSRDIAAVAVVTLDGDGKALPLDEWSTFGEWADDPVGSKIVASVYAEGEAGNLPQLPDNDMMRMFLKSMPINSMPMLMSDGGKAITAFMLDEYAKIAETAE

inhibition at 1 M [1]: > 70%
inhibition at 1 M [2]: > 70%
Structure (SMILES): OC[C@H]1OC(O)[C@@H](O)[C@@H](O)[C@@H]1O (some centres unmarked) [mannose]

Structure (SMILES): OCC1(O)OC[C@@H](O)[C@@H](O)[C@@H]1O (some centres unmarked) [fructose]
% inhibition [3]: mannose and fructose acted as competitive inhibitors for BaBgl1A and BaBgl3B
% inhibition [4]: mannose and fructose acted as competitive inhibitors for BaBgl1A and BaBgl3B

Structure (SMILES): CC(C)=CCC[C@](C)(O[C@@H]1O[C@H](CO[C@@H]2O[C@H](CO)[C@@H](O)[C@H](O)[C@H]2O)[C@@H](O)[C@H](O)[C@H]1O)[C@H]1CC[C@]2(C)[C@@H]1[C@H](O)C[C@@H]1[C@@]3(C)CC[C@H](O[C@@H]4O[C@H](CO)[C@@H](O)[C@H](O)[C@H]4O[C@@H]4O[C@H](CO)[C@@H](O)[C@H](O)[C@H]4O)C(C)(C)[C@@H]3CC[C@]12C [Rb1]
TLC and HPLC of products [5]: Rb1 could be converted into Rd and Gyp XVII by BaBgl3A
